The values below come from patent US20120122956A1, “METHODS FOR INHIBITING AN[…] MULTI-ARM POLYMERIC CONJUGATES OF 7-ETHYL-10-HYDROXYCAMPTOTHECIN” (ENZON PHARMACEUTICALS, INC., priority 2009, published 2012).

The nature of data set [1]: 7-ethyl-10-hydroxycamptothecin formation from conjugates in rat plasma. In kind it is in vitro ADME.
Data set [2] in a line: Hydrolysis in human plasma (conjugate half life, 7-ethyl-10-hydroxycamptothecin formation). In kind it is in vitro ADME. The method, then: In human plasma, 7-ethyl-10-hydroxycamptothecin was steadily released from the PEG conjugates with a doubling time of 22 to 52 minutes and the release appeared to be pH and concentration dependent as described in the following EXAMPLE 24.

The nature of data set [3]: 7-ethyl-10-hydroxycamptothecin formation from conjugates in mouse plasma. It is filed as in vitro ADME.
Data set [4] can be described thus: Solubility in aqueous saline solution. It is filed as physicochemical.
The test system of data set [5] is CAMs grafted with tumor biopsy specimens of HTLA-230 or GI-LI-N xenografts. Particulars: for number of allantoic vessels radiating towards the tumor specimen: compared to control CAMs, CPT-11 10 or 40 mg/kg, compound 9 10 mg/kg (SN38 based). The method, then: Protoc. 2006, 1:85-91. Mice were injected with the human NB cell line, HTLA-230 or GI-LI-N. Tumor biopsy specimens in size of 1-2 mm^3 were obtained from the xenografted mice and then grafted onto the CAMs. […] In the control group, the CAMs were incubated with PBS buffer. […] The CAMs were examined daily for 12 days and photographed in ovo with a stereomicroscope equipped with a camera and image analyzer system (Olympus Italia, Italy). CD31-positive microvessels were measured and normalized with that of the control group. Less CD31-positive microvessels mean greater antiangiogenic effects. Microvessel density was represented by the percentage of the total number of intersection points occupied by CD31-positive vessels cut transversely (diameter of 3-10 μm). Mean values±SD were determined for each analysis.

Data set [6] has as its system HIF-1α. Briefly: HIF-1-dependent luciferase expression in U251-HRE human glioma xenografts. To be noted: for luminescence (HIF-1-dependent luciferase): single dose or multiple doses, 48 hour and 120 hour time points, not normalized. In kind it is in vivo, mice. The procedure:
The effect was measured by HIF-1-dependent luciferase expression in the U251-HRE xenografts.
(§1) The human glioma cell line, U251-HRE was kindly provided by Dr. Giovanni Melillo at National Cancer Institute (Frederick, Md., United States). The cells were transfected with luciferase reporter plasmids containing three copies of a canonical hypoxia response element (HRE) from the inducible nitric oxide synthase gene (Rapsirada, et al. 2000). U251-HRE tumors were established in the right axillary flank of female Harlan Sprague-Dawley nude mice (Harlan World, Indianapolis, Ind.) by subcutaneous injection of 1×10^7 U251-HRE cells/mouse. […] At each treatment time point, the tumor volume measurements were recorded and the tumor weights (mg) calculated using mg=[tumor length×(tumor width)]/2. […] To do so, the mice were injected intraperineally with 150 mg/kg of D-luciferin Firefly, potassium salt (Biosynth International, Inc., Itasca, Ill.). After 10 minutes, the mice were anesthetized via isofluorane gas and imaged using the Xenogen IVIS 100 Imaging Station (Xenogen Corp., Alameda, Calif.).
(In general: In xenograft studies the graft and the host belong to different species.)

Another data set deals with HIF-2α. Particulars: GI-LI-N, HTLA-230, SH-SY5Y cells, 24 and 48 hours. The method, then: (§2) The cancer cells were grown in complete DMEM or RPMI-1640 medium, supplemented with 10% heat-inactivated FCS, as described in Pastorino F. et al., Cancer Res. 2006, 66:10073-82, 2006; Pastorino F. et al., Clin. Cancer Res. 2008, 14:7320-9; and Brignole C, et al., J. Nat'l. Cancer Inst. 2006, 98:1142-57). […] In some experiments (FIGS. 14(B) and (C)), the cancer cells were pre-incubated with 0.15 mM of Desferal (DFX or Deferoxamine purchased from Novartis Pharma in Stein, Swizerland) for 6 hours to induce HIF-1α. […] The cells were collected and western blotting analysis was performed using cell lysates as described in Pagnan G. et al., Clin. Cancer Res. 2009, 15:1199-209). Monoclonal anti-p53 (clone PAb 1801) and anti-HIF-1α (clone 54) were purchased from BD Biosciences (Buccinasco, Mich., Italy). Anti-HIF-2α (clone ep190b), and an anti-GAPDH (clone 14c10) antibodies were from Novus Biologicals, Inc (Cambridge, UK) and Cell Signaling Technology (Danvers, Mass., US), respectively.

Data set [7] has as its system HIF-1α. The method, then:
as §2

For data set [8], the system named is human neuroblastoma cells (GI-LI-N) xenograft tumors. Briefly: Tumor angiogenesis and invasion in orthotopic GI-LI-N xenografted mice (VEGF, CD31, MMP-2, MMP-9 staining). In kind it is in vivo. The method, then: (§3) Xenograft tumors were established in mice by injecting human neuroblastoma cells (GI-LI-N) in the adrenal gland at day 0 (T0). […] The control group mice received HEPES-buffered saline solution. Histological examination was performed on the tumors removed from the mice at day 44 (T44).
The tissue sections were stained with antibodies against VEGF and CD31 to evaluate inhibition of angiogenesis. […] Cell nuclei were stained with DAPI. Morphometric analysis was performed on 9 randomly selected fields every 3 sections, observed at 200× magnification with an Olympus photomicroscope, using Image Analysis software (Olympus Italia). […] The sections were then washed twice in PBS and saturated with 2% BSA in PBS. In the morphometric analysis, the mean value in each image from the section, the final mean value for all the images and the SEM were calculated. The statistical significance of the differences between the mean values of the different experimental conditions was determined by Student's t test (GraphPad software). Findings were considered significant at P values <0.05 for all statistical evaluations.

Data set [9] has the same test system. To be noted: compared to mice treated with CAMPTOSAR; 10 mg/kg i.v. q2d×5. The method, then: as §3
The tissue sections removed from the treated mice in Example 27 were immunostained with TUNEL to evaluate apoptosis, and with primary antibody against histone H2ax (H2AFX) to evaluate DNA-damage dependent histone phosphorylation.

The test system of the next data set is U251-HRE xenografts. Particulars: zero to 125 hours of treatment (FIG. 13).
Description: as §1

Data set [10] in a line: Pharmacokinetics in tumor free Balb/C mice. In kind it is in vivo. The procedure:
Tumor free Balb/C mice were injected with a single injection of 20 mg/kg 4armPEG-Gly-(7-ethyl-10-hydroxycamptothecin) conjugates. At various time points mice were sacrificed and plasma was analyzed for intact conjugates and released 7-ethyl-10-hydroxycamptothecin by HPLC. Pharmacokinetic analysis was done using non-compartmental analysis (WinNonlin).

The nature of another data set: Pharmacokinetics in rats. In kind it is in vivo. The method, then: Additionally, pharmacokinetic profiles of 4arm PEG-Gly-(7-ethyl-10-hydroxycamptothecin) were investigated in rats. In rats, dose levels of 3, 10 and 30 mg/kg (7-ethyl-10-hydroxycamptothecin equivalent) were used. The pharmacokinetic profiles in rats were consistent with those of mice.
[11] abbreviates: multiple doses at MTD (q2d×3, day 0, 2, 4; compound 9 10 mg/kg, CPT-11 40 mg/kg), 120 hours.
The mark [12] stands for this setting: 10 mg/kg i.v. q2d×5, tumors removed day 44.
[13] abbreviates: significantly when compared to Camptosar (P<0.05), 10 mg/kg i.v. q2d×5.
Setting [14] is: 7-ethyl-10-hydroxycamptothecin released from Compound 9, single injection 20 mg/kg of conjugate.
Setting [15] is: released 7-ethyl-10-hydroxycamptothecin.

Regarding “^40k4arm-PEG-Ala-(20)-(7-ethyl-10-hydroxycamptothecin) [Compound 12]”, the “Doubling Time in Plasma, Rat (7-ethyl-10-hydroxycamptothecin formation rate from conjugates)” value (shortened to “Doubling Time in Plasma, Rat”) in data set [1] is 753 min. In data set [2], the “Doubling Time in Plasma, Human (7-ethyl-10-hydroxycamptothecin formation rate from conjugates)” value (from here on “Doubling Time in Plasma, Human”) turned out to be 51.9 min and the “t1/2 in Human Plasma (PEG conjugate half life)” value (shortened to “t1/2 in Human Plasma”) stood at 0.208 h. Besides, the “Doubling Time in Plasma, Mouse (7-ethyl-10-hydroxycamptothecin formation rate from conjugates)” value (from here on “Doubling Time in Plasma, Mouse”) in [3] turned out to be 45.8 min. Further, the “Solubility in Saline” value in data set [4] is listed as 121 mg/mL.

Turning to “^40k4arm-PEG-Met-(20)-(7-ethyl-10-hydroxycamptothecin) [Compound 18]”, the “Doubling Time in Plasma, Rat” value in data set [1] is recorded as 1920 min. Besides, in data set [2], the “Doubling Time in Plasma, Human” value turned out to be 22.2 min and the “t1/2 in Human Plasma” value was found to be 0.447 h. Besides, in [3], the “Doubling Time in Plasma, Mouse” value was 41.9 min. Moreover, the “Solubility in Saline” value in [4] was found to be 142 mg/mL.

Turning to “^40k4arm-PEG-Gly(20)-(7-ethyl-10-hydroxycamptothecin) [Compound 9]”, the “number of allantoic vessels radiating towards the tumor specimen” value in data set [5] was “decreased”. For the same molecule, the “number of radiating vessels which invade the tumor specimen” value in data set [5] (compound 9 compared to CPT-11, P<0.01) is reported as “much less”. For the same molecule, the “downregulation of HIF-1α (luminescence normalized for tumor mass, change from baseline)” value in the data set on HIF-1α [6] (setting [11]) came to 93%. The “downregulation of HIF-1α (luminescence normalized for tumor mass, change from baseline)” value in the data set on HIF-1α [6] (single dose (qd×1, compound 9 30 mg/kg), 48 hours) is listed as 37%. In addition, the “downregulation of HIF-1α (luminescence normalized for tumor mass, change from baseline)” value with HIF-1α [6] (single dose (qd×1, compound 9 30 mg/kg), 120 hours) was 83%. The “luminescence (HIF-1-dependent luciferase)” value with HIF-1α [6] is on record as “diminished luminescence”. In the data set on HIF-2α, the “expression of HIF-2α protein” value is recorded as “inhibited”. Further, the “constitutive HIF-1α protein levels” value in the data set with HIF-1α [7] (human neuroblastoma cells, 24 hours (FIG. 14B)) is recorded as “decreased”. Besides, the “DFX-induced HIF-1α protein levels” value in the data set with HIF-1α [7] (pre-incubated with 0.15 mM Desferal 6 hours, then treated 24 hours (FIG. 14C)) is reported as “decreased”. In [8] (setting [12]), the “CD31 expression in primary NB tumors” value is on record as “inhibited” and the “VEGF expression in primary NB tumors” value is listed as “inhibited”. Further, the “number of CD31-positive endothelial cells” value in data set [8] (compared to mice treated with CAMPTOSAR, P<0.05, 10 mg/kg i.v. q2d×5) was “decreased”. For the same molecule, in data set [8] (setting [13]), the MMP-2 expression result is recorded as “inhibited” and the MMP-9 expression result is reported as “inhibited”. For the same molecule, in [9], the “Histone H2ax staining in tumor tissues” value is listed as “enhanced” and the “TUNEL staining in tumor tissues (apoptosis)” value is given as “enhanced”. Also, in the data set on U251-HRE xenografts, the tumor mass result is given as “reduced”.

For the molecule `CCc1c2c(nc3ccc(OC(=O)N4CCC(N5CCCCC5)CC4)cc13)-c1cc3c(c(=O)n1C2)COC(=O)[C@]3(O)CC` [CPT-11, reference compound], the “number of allantoic vessels radiating towards the tumor specimen” value in data set [5] is given as “decreased”. Moreover, the “downregulation of HIF-1α (luminescence normalized for tumor mass, change from baseline)” value in the data set on HIF-1α [6] (multiple doses (q2d×3, CPT-11 40 mg/kg), 48 hours) turned out to be 15%; in the data set on HIF-1α [6] (setting [11]), 32%. In addition, the “luminescence (HIF-1-dependent luciferase)” value in the data set on HIF-1α [6] is reported as “minimal effect”. Also, the “downregulation of HIF-1α” value in the data set on HIF-1α [6] (single injection (qd×1, CPT-11 80 mg/kg)) was “no downregulation”. Further, in the data set on U251-HRE xenografts, the tumor mass entry is on record as “reduced”.

Turning to `CCc1c2c(nc3ccc(O)cc13)-c1cc3c(c(=O)n1C2)COC(=O)[C@]3(O)CC` [7-ethyl-10-hydroxycamptothecin], in [10] (setting [14]), the exposure (AUC) – broadly, the area under the concentration-time curve, a measure of exposure – worked out at 98300 ng·h/mL; the CL is 3.37 mL/min/kg; the Cmax – broadly, the highest concentration seen after dosing – came out at 13200 ng/mL; the “Terminal t1/2” value amounted to 14.2 h. Also, in data set [10] (setting [14]), the Vss (as a rule, a proportionality between amount in the body and measured concentration, not a real space) worked out at 3.094 L/kg. In [10] (7-ethyl-10-hydroxycamptothecin released from the conjugate, mice), the terminal elimination half-life fell in the range of 18 to 26 h. In data set [10] (released 7-ethyl-10-hydroxycamptothecin, mice), the Enterohepatic circulation result is reported as “observed”. Further, in the data set “Pharmacokinetics in rats” (7-ethyl-10-hydroxycamptothecin released from 4armPEG-Gly conjugate), the “apparent elimination half life” value fell in the range of 21 to 22 h. In the data set “Pharmacokinetics in rats” (setting [15]), the Enterohepatic circulation entry was “observed”, the clearance (usually the rate of elimination divided by the concentration) is 2.18 mL/min/kg and the “estimated Vss” value was 2.384 L/kg. In addition, in data set [4], the “Solubility in Saline” value is on record as “^a7-ethyl-10-hydroxycamptothecin is not soluble in saline”.

Take “^40K4arm-PEG-Sar-(20)-(7-ethyl-10-hydroxycamptothecin) [Compound 23]”: the “Doubling Time in Plasma, Rat” value in data set [1] was 481 min. Besides, in data set [2], the “Doubling Time in Plasma, Human” value is recorded as 28.8 min and the “t1/2 in Human Plasma” value is 0.317 h. In addition, the “Doubling Time in Plasma, Mouse” value in data set [3] was 43.4 min.
